Test results published in patent US20250092014A1, “COMPOUNDS AND METHODS OF ACTIVATING LIPOPROTEIN LIPASE” (Metrea Biosciences, Inc., priority 2021, published 2025).

Legend:
[1] = target: T1, LPL (native bovine milk protein) inactivated by ANGPTL4 (Bos taurus, UniProt P11151); assay: LPL ANGPTL4 protection assay (LPL fluorescence assay, resorufin butyrate substrate); assay type: biochemical; conditions: LPL activation activity, LPL 2.5 nM, ANGPTL4 20 nM
T1 construct: from tissue; host or cells: bovine milk (LPL); E. coli (GST-ANGPTL4)
T1 sequence (P11151 29-478): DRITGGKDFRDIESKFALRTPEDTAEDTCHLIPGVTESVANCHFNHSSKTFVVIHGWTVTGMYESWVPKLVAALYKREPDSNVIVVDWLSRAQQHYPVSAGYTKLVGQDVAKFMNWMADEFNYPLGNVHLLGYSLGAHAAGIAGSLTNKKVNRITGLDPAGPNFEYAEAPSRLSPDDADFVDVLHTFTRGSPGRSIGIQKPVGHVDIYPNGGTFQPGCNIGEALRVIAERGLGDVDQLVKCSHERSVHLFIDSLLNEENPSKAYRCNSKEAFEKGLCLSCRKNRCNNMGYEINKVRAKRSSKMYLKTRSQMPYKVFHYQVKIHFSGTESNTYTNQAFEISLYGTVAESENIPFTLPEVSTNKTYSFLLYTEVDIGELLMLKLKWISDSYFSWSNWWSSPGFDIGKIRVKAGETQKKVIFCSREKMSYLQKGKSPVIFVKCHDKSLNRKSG
Procedure: LPL is inactivated by angiopoietin-like 4 (ANGPTL4). Compounds of the present disclosure were for activity using the following protection assay. Briefly, the assay was performed in a black opaque 96-well microtiter plate with final volume of 100 μL using a buffer consisting of 50 mM HEPES (pH 7.2), 150 mM NaCl and 0.03% Triton X-100. Compounds were prepared as 10 mM stocks in DMSO, with subsequent serial dilutions performed in DMSO. Two microliters of test compounds were added to the microtiter plate, followed by 49-PL of LPL (native bovine milk protein affinity purified using heparin-affinity chromatography) in assay buffer. The plate contents were mixed using an orbital shaker and allowed to incubate for 5 minutes at room temperature. The enzymatic assay was initiated by the addition of a mixture of 49 μL of 50 μM resorufin butyrate (Santa Cruz #sc-208302; prepared from a 10 mM DMSO stock) and ANGPTL4 (N-terminal GST construct consisting of residues 26-164 expressed in E. coli) in assay buffer. The final concentrations of LPL and ANGPTL4 were 2.5 nM and 20 nM, respectively. The assay was allowed to proceed at 30° C. for 25 minutes with kinetic monitoring (Ex560/Em585) followed by an endpoint reading which was used for analysis.
Data was analyzed in Graphpad Prism (version 6.0, GraphPad Software, Inc., San Diego, CA) using a variable slope four parameter fit of the equation:
Y=Bottom+(Top-Bottom)/(1+10^((Log EC50−X)*HillSlope)),
where X is the concentration of test compound, Y corresponds to the amount of product expressed in relative fluorescence units, and Top and Bottom refer to the plateaus of the curve. Percent activation (protection) of test compound was calculated relative to zero effect wells (ZEW; LPL, ANGPTL4 and substrate) and maximum effect wells (MEW; LPL plus substrate): ((test well−ZEW)/(MEW−ZEW))*100.

[2] = system: C57BL/6 mice; assay: Oral fat tolerance test (postprandial triglyceridaemia after olive oil bolus); assay type: in vivo; conditions: overnight-fasted C57BL/6 mice, compound IP 1 h before 10 mL/kg olive oil, bled at 1, 2 and 3.5 h
Procedure: To examine to effects of test compounds on postprandial triglycerdemia, 5-7 week old C57BL/6 mice were fasted overnight (18 hours) on non-nutritive bedding (Alpha-Dri). Following the overnight fast, the mice are bled via retro-orbital sinus (25 μL) using microcapillaries (t-1 hr sample). The LPL activator test compound was then administered intraperitoneally (IP) in a dose volume of 10 ml/kg. One hour later the mice were bled for the t=0 timepoint. The mice were then immediately dosed with a 10 mL/kg oral bolus of olive oil. The mice were subsequently bled at 1-, 2-, and 3.5-hours post-olive oil administration.
Whole blood samples were collected into tubes containing 0.125% EDTA solution in saline. Diluted plasma samples were analyzed for triglyceride levels using Infinity Triglyceride reagent (Thermo) on a microtiter plate. Briefly, 10 μL of diluted sample was added the plate. 200 μL of the reagent was added and the plate was incubated for 10 minutes at 37° C. The plate was then read at 550 nm on a Molecular Devices M5 Spectrophotometer (San Jose, CA). The concentration of triglycerides in the sample was determined using a standard curve made using a dilution of triglyceride standard (Sigma-Aldrich, St. Louis, MO) using the Softmax software from Molecular Devices. All graphing and subsequent area under-the-curve and statistical analysis (Student's t Test) is performed using GraphPad Prism (version 8.0, GraphPad Software, Inc., San Diego, CA).

SMILES | EC50 [1] [µM] | hypertriglyceridemia response to oral olive oil gavage (plasma triglycerides) [2]
Cc1ccc(NC(=O)c2cc(NCc3ccc(-c4nnn[nH]4)cc3)ccc2N2CCCCC2)cc1 [Compound 175, 5-((4-(1H-tetrazol-5-yl)benzyl)amino)-2-(piperidin-1-yl)-N-(p-tolyl)benzamide] | 13.4 | blunts hypertriglyceridemia response in a dose-dependent fashion
Cn1c(C(=O)Nc2cc(C(=O)Nc3ccccc3CC(=O)O)ccc2N2CCCCC2)cc2ccccc21 [Compound 173, 2-(2-(3-(1-methyl-1H-indole-2-carboxamido)-4-(piperidin-1-yl)benzamido)phenyl)acetic acid] | 5.85 | blunts hypertriglyceridemia response in a dose-dependent fashion
Cc1ccc(NC(=O)c2cc(NC(=O)c3ccccc3C(=O)O)ccc2NC2CCCC2)cc1Cl [Compound 176, 2-((3-((3-chloro-4-methylphenyl)carbamoyl)-4-(cyclopentylamino)phenyl)carbamoyl)benzoic acid] | 5.74 | blunts hypertriglyceridemia response in a dose-dependent fashion
CCn1nc(C(=O)Nc2cc(C(=O)Nc3ccccc3CC(=O)NS(C)(=O)=O)ccc2N2CCCCC2)c2ccccc21 [Compound 172, 1-ethyl-N-(5-((2-(2-(methylsulfonamido)-2-oxoethyl)phenyl)carbamoyl)-2-(piperidin-1-yl)phenyl)-1H-indazole-3-carboxamide] | 7.5 | blunts hypertriglyceridemia response in a dose-dependent fashion
Cc1ccc(NC(=O)c2cc(N3Cc4cc(-c5nnn[nH]5)ccc4C3=O)ccc2N2CCCCC2)cc1 [Compound 170, 5-(1-oxo-5-(1H-tetrazol-5-yl)isoindolin-2-yl)-2-(piperidin-1-yl)-N-(p-tolyl)benzamide] | 7.98 | blunts hypertriglyceridemia response in a dose-dependent fashion
Cn1nc(C(=O)Nc2cc(C(=O)Nc3ccccc3CC(=O)O)ccc2N2CCCCC2)c2ccccc21 [Compound 174, 2-(2-(3-(1-methyl-1H-indazole-3-carboxamido)-4-(piperidin-1-yl)benzamido)phenyl)acetic acid] | 3.99 | blunts hypertriglyceridemia response in a dose-dependent fashion
